Measured values as given in patent publication US20060069132A1, “Azolecarboxamide herbicides” (priority 2004, published 2006).

Columns and labels:
giant foxtail [1] = assay: Test A pre-/postemergence herbicide test; assay type: in vivo, Setaria faberi
Method in brief: (§1)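 Seeds sown in sandy loam received a preemergence directed soil spray of compound in non-phytotoxic solvent with surfactant; postemergence plants (2–10 cm, one- to two-leaf stage) were sprayed to runoff at the same time. After ~10 days in greenhouse, injury was rated visually versus untreated controls (0 = no effect, 100 = complete control).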

wild oat = assay: Test B postemergence herbicide test; assay type: in vivo, Avena fatua; details: postemergence, visual rating, scale 0 (no effect) to 100 (complete control)
Method in brief: (§2)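 Greenhouse test; postemergence application to plants at 1–4 leaves (2–18 cm); paddy species at 2 leaves; evaluated visually vs controls at 13–15 days; scale 0–100 (100 = complete control).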

giant foxtail [2] = assay: Test B pre-/postemergence herbicide test; assay type: in vivo, Setaria faberi; details: for Foxtail, Giant plant response rating: postemergence, visual rating, scale 0 (no effect) to 100 (complete control)
Method in brief: (§3)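 Flooded paddy rice and barnyardgrass were treated at the 2-leaf stage; upland plantings received compound either on sown seed or on 1- to 4-leaf seedlings. All were kept 13–15 days in a greenhouse and scored visually, 0–100, relative to untreated plants.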

lambsquarters = assay: Test B pre-/postemergence herbicide test; assay type: in vivo, Chenopodium album; details: for Lambsquarters plant response rating: postemergence, visual rating, scale 0 (no effect) to 100 (complete control)
Method in brief: as §3

wheat = assay: Test B postemergence herbicide test; assay type: in vivo, Triticum aestivum; design: key to Wheat plant response rating: 0 = no effect, 100 = complete control; details: postemergence, visual rating, scale 0 (no effect) to 100 (complete control)
Method in brief: as §2

barnyardgrass [3] = assay: Test B pre-/postemergence herbicide test; assay type: in vivo, Echinochloa crus-galli; details: for Barnyardgrass plant response rating: postemergence, visual rating, scale 0 (no effect) to 100 (complete control)
Method in brief: (§4)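 Greenhouse pot assay with simultaneous preemergence (treated seed) and postemergence (2–18 cm seedlings) applications of surfactant-containing, non-phytotoxic solvent formulations. Response scored visually 13–15 days later on a 0–100 scale, 100 meaning complete control.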

redroot pigweed = assay: Test A pre-/postemergence herbicide test; assay type: in vivo, Amaranthus retroflexus
Method in brief: as §1

large crabgrass [4] = assay: Test A pre-/postemergence herbicide test; assay type: in vivo, Digitaria sanguinalis
Method in brief: as §1

pigweed = assay: Test B pre-/postemergence herbicide test; assay type: in vivo, Amaranthus retroflexus; details: for Pigweed plant response rating: postemergence, visual rating, scale 0 (no effect) to 100 (complete control)
Method in brief: as §3

morningglory [5] = assay: Test B pre-/postemergence herbicide test; assay type: in vivo, Ipomoea coccinea; details: for Morningglory plant response rating: postemergence, visual rating, scale 0 (no effect) to 100 (complete control)
Method in brief: as §4

ducksalad = assay: Test B flooded paddy test; assay type: in vivo, Heteranthera limosa; details: 1000 g ai/ha, visual rating, scale 0 to 100 (0 no effect, 100 complete control), 13 to 15 days
Method in brief: as §2

morningglory [6] = assay: Test A pre-/postemergence herbicide test; assay type: in vivo, Ipomoea spp.
Method in brief: as §1

rice [7] = assay: Test B pre-/postemergence herbicide test; assay type: in vivo, Oryza sativa; details: preemergence
Method in brief: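 Evaluation is visual, comparing treated with control plants on a scale where 0 means no effect and 100 means full control. Treatments were preemergence, or postemergence on seedlings 2–18 cm tall, and held 13–15 days in the greenhouse.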

rice [8] = assay: Test B flooded paddy test; assay type: in vivo, Oryza sativa; details: 1000 g ai/ha, visual rating, scale 0 to 100 (0 no effect, 100 complete control), 13 to 15 days
Method in brief: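 After treating 2-leaf paddy plants or 2–18 cm postemergence plants (1 to 4 leaves) with formulated chemical, researchers kept them in a greenhouse for 13–15 days. Effects were judged visually versus controls: 0 indicates none, 100 total control.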

barnyardgrass [9] = assay: Test B flooded paddy test; assay type: in vivo, Echinochloa crus-galli; details: 1000 g ai/ha, visual rating, scale 0 to 100 (0 no effect, 100 complete control), 13 to 15 days
Method in brief: as §2

corn = assay: Test B pre-/postemergence herbicide test; assay type: in vivo, Zea mays; details: for Corn plant response rating: postemergence, visual rating, scale 0 (no effect) to 100 (complete control)
Method in brief: as §3

blackgrass = assay: Test B postemergence herbicide test; assay type: in vivo, Alopecurus myosuroides; details: postemergence, visual rating, scale 0 (no effect) to 100 (complete control)
Method in brief: as §2

cocklebur = assay: Test B pre-/postemergence herbicide test; assay type: in vivo, Xanthium strumarium; details: for Cocklebur plant response rating: postemergence, visual rating, scale 0 (no effect) to 100 (complete control)
Method in brief: as §4

barnyardgrass [10] = assay: Test A pre-/postemergence herbicide test; assay type: in vivo, Echinochloa crus-galli
Method in brief: as §1

Surinam grass = assay: Test B pre-/postemergence herbicide test; assay type: in vivo, Urochloa decumbens; details: for Surinam Grass plant response rating: postemergence, visual rating, scale 0 (no effect) to 100 (complete control)
Method in brief: as §3

velvetleaf [11] = assay: Test B pre-/postemergence herbicide test; assay type: in vivo, Abutilon theophrasti; details: for Velvetleaf plant response rating: postemergence, visual rating, scale 0 (no effect) to 100 (complete control)
Method in brief: as §3

velvetleaf [12] = assay: Test A pre-/postemergence herbicide test; assay type: in vivo, Abutilon theophrasti
Method in brief: as §1

[13] = tested on: small flower umbrella sedge; assay: Test B flooded paddy test; assay type: in vivo, Cyperus difformis; details: 1000 g ai/ha, visual rating, scale 0 to 100 (0 no effect, 100 complete control), 13 to 15 days
Method in brief: as §2

large crabgrass [14] = assay: Test B pre-/postemergence herbicide test; assay type: in vivo, Digitaria sanguinalis; details: for Crabgrass, Large plant response rating: postemergence, visual rating, scale 0 (no effect) to 100 (complete control)
Method in brief: as §3

[15] = Postemergence, 500 g ai/ha, 0 to 100 scale, 0 no effect, 100 complete control
[16] = Postemergence, 2000 g ai/ha, 0 to 100 scale, 0 no effect, 100 complete control
[17] = Preemergence, 2000 g ai/ha, visual rating, 0 to 100 scale (0 no effect, 100 complete control)
[18] = preemergence, 500 g ai/ha, visual injury, 0 to 100 scale (0 no effect, 100 complete control)
[19] = 125 g ai/ha, 0 = no effect, 100 = complete control, preemergence
[20] = 500 g ai/ha, visual rating 0-100, 0 no effect, 100 complete control, preemergence

## CCc1nc(C(C)(C)C)sc1C(=O)Nc1cccc(C(=O)NCC(F)(F)F)c1 [Compound 206]
Giant foxtail [1]; [15]
  Foxtail, Giant plant response rating: 0
Giant foxtail [1]; [16]
  Plant response rating, Foxtail, Giant: 0
Giant foxtail [1]; [17]
  Foxtail, Giant plant response rating: 20
Giant foxtail [1]; [18]
  Foxtail, Giant plant response rating: 0
Wild oat; 125 g ai/ha
  Oat, Wild plant response rating: 20
Wild oat; 500 g ai/ha
  Oat, Wild plant response rating: 20
Giant foxtail [2]; [19]
  Foxtail, Giant plant response rating (0 to 100 scale): 0
Giant foxtail [2]; [20]
  Plant response rating, Foxtail, Giant: 20
Giant foxtail [2]; 125 g ai/ha
  Foxtail, Giant plant response rating: 20
Giant foxtail [2]; 500 g ai/ha
  Foxtail, Giant plant response rating: 20
lambsquarters; [19]
  Lambsquarters plant response rating (0 to 100 scale): 0
lambsquarters; [20]
  Plant response rating, Lambsquarters: 30
lambsquarters; 125 g ai/ha
  Lambsquarters plant response rating: 30
lambsquarters; 500 g ai/ha
  Lambsquarters plant response rating: 80
wheat; 125 g ai/ha
  Wheat plant response rating: 20
wheat; 500 g ai/ha
  Wheat plant response rating: 20
Barnyardgrass [3]; [19]
  Barnyardgrass plant response rating (0 to 100 scale): 10
Barnyardgrass [3]; [20]
  Plant response rating, Barnyardgrass: 70
Barnyardgrass [3]; 125 g ai/ha
  Barnyardgrass plant response rating: 0
Barnyardgrass [3]; 500 g ai/ha
  Barnyardgrass plant response rating: 10
Redroot pigweed; [15]
  Pigweed plant response rating: 15
Redroot pigweed; [16]
  Plant response rating, Pigweed: 20
Redroot pigweed; [17]
  Pigweed plant response rating: 60
Redroot pigweed; [18]
  Pigweed plant response rating: 25
Large crabgrass [4]; [15]
  Crabgrass, Large plant response rating: 0
Large crabgrass [4]; [16]
  Plant response rating, Crabgrass, Large: 5
Large crabgrass [4]; [17]
  Crabgrass, Large plant response rating: 20
Large crabgrass [4]; [18]
  Crabgrass, Large plant response rating: 20
pigweed; [19]
  Pigweed plant response rating (0 to 100 scale): 0
pigweed; [20]
  Plant response rating, Pigweed: 80
pigweed; 125 g ai/ha
  Pigweed plant response rating: 30
pigweed; 500 g ai/ha
  Pigweed plant response rating: 40
Morningglory [5]; [19]
  Morningglory plant response rating (0 to 100 scale): 0
Morningglory [5]; [20]
  Plant response rating, Morningglory: 20
Morningglory [5]; 125 g ai/ha
  Morningglory plant response rating: 20
Morningglory [5]; 500 g ai/ha
  Morningglory plant response rating: 20
ducksalad
  Ducksalad plant response rating: 40
Morningglory [6]; [15]
  Morningglory plant response rating: 0
Morningglory [6]; [16]
  Plant response rating, Morningglory: 0
Morningglory [6]; [17]
  Morningglory plant response rating: 25
Morningglory [6]; [18]
  Morningglory plant response rating: 5
Rice [7]; 125 g ai/ha, 0 = no effect, 100 = complete control
  Rice plant response rating (0 to 100 scale): 0
Rice [7]; 500 g ai/ha, visual rating 0-100, 0 no effect, 100 complete control
  Plant response rating, Rice: 30
Rice [8]
  Rice plant response rating: 30
Barnyardgrass [9]
  Barnyardgrass plant response rating: 10
corn; [19]
  Corn plant response rating (0 to 100 scale): 0
corn; [20]
  Plant response rating, Corn: 40
corn; 125 g ai/ha
  Corn plant response rating: 20
corn; 500 g ai/ha
  Corn plant response rating: 20
blackgrass; 125 g ai/ha
  Blackgrass plant response rating: 0
blackgrass; 500 g ai/ha
  Blackgrass plant response rating: 20
cocklebur; [19]
  Cocklebur plant response rating (0 to 100 scale): 0
cocklebur; [20]
  Plant response rating, Cocklebur: 0
cocklebur; 125 g ai/ha
  Cocklebur plant response rating: 20
cocklebur; 500 g ai/ha
  Cocklebur plant response rating: 40
Barnyardgrass [10]; [15]
  Barnyardgrass plant response rating: 5
Barnyardgrass [10]; [16]
  Plant response rating, Barnyardgrass: 10
Barnyardgrass [10]; [17]
  Barnyardgrass plant response rating: 60
Barnyardgrass [10]; [18]
  Barnyardgrass plant response rating: 10
Surinam grass; [19]
  Surinam Grass plant response rating (0 to 100 scale): 0
Surinam grass; [20]
  Plant response rating, Surinam Grass: 20
Surinam grass; 125 g ai/ha
  Surinam Grass plant response rating: 10
Surinam grass; 500 g ai/ha
  Surinam Grass plant response rating: 20
Velvetleaf [11]; [19]
  Velvetleaf plant response rating (0 to 100 scale): 0
Velvetleaf [11]; [20]
  Plant response rating, Velvetleaf: 10
Velvetleaf [11]; 125 g ai/ha
  Velvetleaf plant response rating: 20
Velvetleaf [11]; 500 g ai/ha
  Velvetleaf plant response rating: 20
Velvetleaf [12]; [15]
  Velvetleaf plant response rating: 5
Velvetleaf [12]; [16]
  Plant response rating, Velvetleaf: 20
Velvetleaf [12]; [17]
  Velvetleaf plant response rating: 10
Velvetleaf [12]; [18]
  Velvetleaf plant response rating: 15
[13]
  Sedge, Umbrella plant response rating: 50
Large crabgrass [14]; [19]
  Crabgrass, Large plant response rating (0 to 100 scale): 10
Large crabgrass [14]; [20]
  Plant response rating, Crabgrass, Large: 60
Large crabgrass [14]; 125 g ai/ha
  Crabgrass, Large plant response rating: 10
Large crabgrass [14]; 500 g ai/ha
  Crabgrass, Large plant response rating: 30
